Laboratory results from patent US20200306295A1, “METHOD AND DEVICE FOR ANNIHILATION OF Staphylococcus aureus” (priority 2017, published 2020).

Tested on: 200 kinds of cytokines
Assay: Fold change of 200 cytokines in homogenized wound tissue
Format: in vivo, Balb/c mice
Excerpt: To quantify the physiological condition of the wound tissues, we measured the concentrations of 200 kinds of cytokines (Table. 1) from the supernatant of homogenized tissue solution. Cytokines are small secreted proteins released by cells and have specific effect on the interactions and communications between cells (25).
To initiate the formation of a skin wound, five groups (n=5) of eight-week old female Balb/c mice (obtained from Harlan Laboratories, Indianapolis, Ind., USA) were disinfected with ethanol (70%) and shaved on the middle of the back (approximately a one-inch by one-inch square region around the injection site) one day prior to infection as described from a reported procedure (3). To prepare the bacterial inoculum, an aliquot of overnight culture of MRSA USA300 was transferred to fresh Tryptic soy broth and shaken at 37° C. until an OD600 value of ˜1.0 was achieved. The cells were centrifuged, washed once with PBS, re-centrifuged, and then re-suspended in PBS. Mice subsequently received an intradermal injection (40 μL) containing 2.40×10^9 CFU/mL MRSA USA300.
One group of mice was left untreated (negative control). Each group of mice receiving a particular treatment regimen was housed separately in a ventilated cage with appropriate bedding, food, and water. […] Mice were treated twice daily (once every 12 hours) for three days, before they were humanely euthanized via CO2 asphyxiation 12 hours after the last dose was administered. The region around the skin wound was lightly swabbed with ethanol (70%) and excised. The tissue was subsequently homogenized in PBS. The homogenized tissue was then serially diluted in PBS before plating onto mannitol salt agar plates. Plates were incubated for at least 19 hours at 37° C. before viable MRSA CFU/mL were counted for each group. Outlier was removed based upon the Dixon Q Test.

## OO [H2O2, hydrogen peroxide]
Blue light and H2O2-treated group
  share of 200 cytokines with negative fold change vs untreated: Over 85%
Cytokine MBL-2, group mean, wound tissue of MRSA-infected mice
  fold change of MBL-2 (mean): −0.0587
Cytokine Meteorin, group mean, wound tissue of MRSA-infected mice
  fold change of Meteorin (mean): 0.4850
Cytokine NOV, group mean, wound tissue of MRSA-infected mice
  fold change of NOV (mean): −0.1756
Cytokine Nope, group mean, wound tissue of MRSA-infected mice
  fold change of Nope (mean): −0.2914
Cytokine OX40 Ligand, group mean, wound tissue of MRSA-infected mice
  fold change of OX40 Ligand (mean): 0.2366
Cytokine Osteoactivin, group mean, wound tissue of MRSA-infected mice
  fold change of Osteoactivin (mean): 0.4709
Cytokine P-Cadherin, group mean, wound tissue of MRSA-infected mice
  fold change of P-Cadherin (mean): −0.0660
Cytokine Periostin, group mean, wound tissue of MRSA-infected mice
  fold change of Periostin (mean): −0.5519
Cytokine PlGF-2, group mean, wound tissue of MRSA-infected mice
  fold change of PlGF-2 (mean): −0.0738
Cytokine Progranulin, group mean, wound tissue of MRSA-infected mice
  fold change of Progranulin (mean): −0.6229
Cytokine Prostasin, group mean, wound tissue of MRSA-infected mice
  fold change of Prostasin (mean): 1.1226
Cytokine Renin 1, group mean, wound tissue of MRSA-infected mice
  fold change of Renin 1 (mean): −0.3457
Cytokine TIM-1, group mean, wound tissue of MRSA-infected mice
  fold change of TIM-1 (mean): −0.1106
Cytokine Testican 3, group mean, wound tissue of MRSA-infected mice
  fold change of Testican 3 (mean): −0.1883
Cytokine Tryptase ε, group mean, wound tissue of MRSA-infected mice
  fold change of Tryptase ε (mean): 0.3620
mean, wound tissue
  fold change of 4-1BB: −0.2733
  fold change of 6Ckine: −0.3474
  fold change of ACE: −0.8627
  fold change of ADAMTS1: 0.1068
  fold change of ALK-1: −0.1821
  fold change of ANG-3: −0.1019
  fold change of ANGPTL3: −0.1222
  fold change of AR: −0.1343
  fold change of Activin A: 0.0097
  fold change of Adiponen: −0.0278
  fold change of Artemin: 0.0433
  fold change of Axl: −0.1455
  fold change of B7-1: 0.2808
  fold change of BAFF R: 0.0988
  fold change of BLC: −0.1960
  fold change of BTC: 0.9018
  fold change of C5a: 0.1618
  fold change of CCL6: −0.3559
  fold change of CCL28: −0.6841
  fold change of CD6: −0.2795
  fold change of CD27: 0.1670
  fold change of CD27L: 0.1373
  fold change of CD30: −0.0510
  fold change of CD30L: −0.0733
  fold change of CD36: −0.4456
  fold change of CD40: −0.1007
  fold change of CD40L: −0.2549
  fold change of CD48: −0.3656
  fold change of CRP: −0.2262
  fold change of CT-1: −0.3499
  fold change of CTLA4: −0.1747
  fold change of CXCL16: −0.2162
  fold change of Chemerin: −0.2510
  fold change of Chordin: −0.0093
  fold change of Clusterin: 0.1123
  fold change of Cystatin C: 0.0313
  fold change of DLL4: −0.0364
  fold change of Decorin: −0.0051
  fold change of Dkk-1: −0.4175
  fold change of Dtk: −0.3288
  fold change of E-Cadherin: −0.1379
  fold change of E-selectin: −0.1083
  fold change of EDAR: 0.0841
  fold change of EGF: −0.2293
  fold change of Endocan: −0.0335
  fold change of Endoglin: −0.6886
  fold change of Eotaxin: 0.8584
  fold change of Eotaxin-2: −0.5961
  fold change of Epigen: −0.1588
  fold change of Epiregulin: −0.2878
  fold change of Fas: −0.3001
  fold change of Fas L: −0.2203
  fold change of Fcg RIIB: 0.2388
  fold change of Fetuin A: −0.5133
  fold change of Flt-3L: −0.2615
  fold change of Fractalkine: 0.4416
  fold change of G-CSF: −0.4083
  fold change of GITR: −0.1455
  fold change of GITR L: −0.0425
  fold change of GM-CSF: −0.1960
  fold change of Galectin-1: −0.1195
  fold change of Galectin-3: 0.0550
  fold change of Galectin-7: −0.3150
  fold change of Gas 1: −0.7018
  fold change of Gas 6: −0.3085
  fold change of Granzyme B: 0.2145
  fold change of Gremlin: −0.8057
  fold change of H60: −0.0250
  fold change of HAI-1: −0.0794
  fold change of HGF: 0.2749
  fold change of HGF R: 0.0240
  fold change of I-TAC: −0.1457
  fold change of ICAM-1: −0.0362
  fold change of IFNg: −0.2366
  fold change of IFNg R1: −0.2832
  fold change of IGF-1: 0.2487
  fold change of IGFBP-2: 0.0153
  fold change of IGFBP-3: −0.2116
  fold change of IGFBP-5: 0.0442
  fold change of IGFBP-6: −0.2308
  fold change of IL-1 R4: 0.0090
  fold change of IL-1a: 0.0141
  fold change of IL-1b: 0.2075
  fold change of IL-1ra: 0.1670
  fold change of IL-2: −0.1860
  fold change of IL-2 Ra: 0.2015
  fold change of IL-3: −0.1781
  fold change of IL-3 Rb: −0.0953
  fold change of IL-4: −0.2011
  fold change of IL-5: −0.3106
  fold change of IL-6: −0.2775
  fold change of IL-7: −0.0083
  fold change of IL-7 Ra: −0.4620
  fold change of IL-9: 0.0482
  fold change of IL-10: −0.1759
  fold change of IL-12p40: 0.0200
  fold change of IL-12p70: −0.1362
  fold change of IL-13: −0.4855
  fold change of IL-15: −0.1351
  fold change of IL-17: 1.4006
  fold change of IL-17B: −0.2485
  fold change of IL-17B R: 0.0438
  fold change of IL-17E: −0.3214
  fold change of IL-17F: 0.6993
  fold change of IL-20: −0.1274
  fold change of IL-21: −0.5851
  fold change of IL-22: −0.5330
  fold change of IL-23: 0.1392
  fold change of IL-28: 0.2046
  fold change of IL-33: −0.6370
  fold change of JAM-A: −0.2998
  fold change of KC: −0.0602
  fold change of Kremen-1: −0.4532
  fold change of L-Selectin: −0.1755
  fold change of LIX: −0.2304
  fold change of LOX-1: 0.0229
  fold change of Leptin: −0.1401
  fold change of Leptin R: −0.1563
  fold change of Limitin: 0.5441
  fold change of Lipocalin-2: −0.0669
  fold change of Lungkine: −0.0954
  fold change of Lymphotactin: 0.0191
  fold change of MCP-1: 0.9431
  fold change of MCP-5: −0.8808
  fold change of MCSF: −0.0002
  fold change of MDC: 0.5488
  fold change of MFG-E8: −0.1414
  fold change of MIG: −0.1127
  fold change of MIP-1a: −0.3107
  fold change of MIP-1b: −0.4967
  fold change of MIP-1g: −0.0241
  fold change of MIP-2: −0.0277
  fold change of MIP-3a: 0.3267
  fold change of MIP-3b: −0.1993
  fold change of MMP-2: −0.5768
  fold change of MMP-3: −0.0983
  fold change of MMP-10: −0.1476
  fold change of MadCAM-1: −0.3032
  fold change of Marapsin: −0.0476
  fold change of Neprilysin: −0.2555
  fold change of OPG: −0.2142
  fold change of OPN: −0.2307
  fold change of P-selectin: −0.4006
  fold change of PDGF-AA: −0.4666
  fold change of PF4: −0.7429
  fold change of Pentraxin 3: −0.7179
  fold change of Persephin: −0.3386
  fold change of Pro-MMP-9: 0.0213
  fold change of Prolactin: 0.2852
  fold change of RAGE: −0.0350
  fold change of RANTES: −0.4249
  fold change of Resistin: −0.3623
  fold change of SCF: 0.1915
  fold change of SDF-1a: −0.0807
  fold change of SLAM: −0.0883
  fold change of Shh-N: −0.1527
  fold change of TACI: −0.2636
  fold change of TARC: −0.4322
  fold change of TCA-3: −0.2756
  fold change of TCK-1: −0.4843
  fold change of TECK: 0.1734
  fold change of TGFb1: −0.1570
  fold change of TNF RI: −0.2939
  fold change of TNF RII: −0.1233
  fold change of TNFα: 0.1039
  fold change of TPO: −0.0215
  fold change of TRANCE: 0.0878
  fold change of TREM-1: 0.0703
  fold change of TROY: −0.0721
  fold change of TSLP: −0.1726
  fold change of TWEAK: −0.1667
  fold change of TWEAK R: −0.4445
  fold change of TremL1: −0.2695
  fold change of VCAM-1: −0.1357
  fold change of VEGF: −0.0295
  fold change of VEGF R1: −0.4184
  fold change of VEGF R3: −0.0705
  fold change of VEGF-B: −0.0693
  fold change of VEGF-D: −0.0146
  fold change of bFGF: −0.2542
  fold change of gp130: 0.1048
  fold change of sFRP-3: −0.1892
